Measurements as given in US11117892B2, “Pyrrolo-pyridine derivative compound, method for preparing same, and pharmaceutical composition containing same as active ingredient for prevention or treatment of protein kinase-related diseases” (DAEGU-GYEONGBUK MEDICAL INNOVATION FOUNDATION, priority 2017, dated 2021).

Experiments:
Assay in all cases: scanMAX Kinase assay panel
Format in all cases: binding
Conditions in all cases: read-out: % control
CDK11 = CDK11 (Homo sapiens (Human), UniProt Q9BWU1)
Procedure: (§1) DiscoverX Co. was asked to measure the enzyme (kinase) selectivity, and the experiment was performed using scanMAX™ Kinase assay panel.
(§2) (Example Compound−Positive Control)/(Negative Control−Positive Control)×100 [Equation 1]
(§3) Herein, the positive control indicates the compound showing the % control of 0%, and the negative control indicates DMSO showing the % control of 100%.

AMPK-alpha1 = AMPK-alpha1 (Homo sapiens (Human), UniProt Q13131)
AMPK-alpha1, sequence (Q13131 whole entry): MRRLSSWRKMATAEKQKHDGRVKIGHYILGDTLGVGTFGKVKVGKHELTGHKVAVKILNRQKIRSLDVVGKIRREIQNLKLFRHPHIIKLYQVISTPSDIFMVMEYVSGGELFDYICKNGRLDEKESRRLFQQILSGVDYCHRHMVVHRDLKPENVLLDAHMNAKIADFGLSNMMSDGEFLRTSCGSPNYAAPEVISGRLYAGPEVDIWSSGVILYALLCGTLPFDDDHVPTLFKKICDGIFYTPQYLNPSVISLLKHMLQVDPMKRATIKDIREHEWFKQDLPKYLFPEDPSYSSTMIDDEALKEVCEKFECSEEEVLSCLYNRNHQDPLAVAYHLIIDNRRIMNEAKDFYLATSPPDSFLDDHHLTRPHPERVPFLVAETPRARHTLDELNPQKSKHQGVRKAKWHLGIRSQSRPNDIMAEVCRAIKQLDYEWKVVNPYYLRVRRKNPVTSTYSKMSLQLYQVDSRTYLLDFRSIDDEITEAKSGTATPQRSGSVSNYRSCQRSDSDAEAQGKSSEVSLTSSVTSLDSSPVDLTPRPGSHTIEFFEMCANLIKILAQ
Procedure: as §1, §2, §3

CSNK1A1L = CSNK1A1L (Homo sapiens (Human), UniProt Q8N752)
Procedure: as §1, §2, §3

DLK = DLK (Homo sapiens (Human), UniProt Q12852)
Procedure: as §1, §2, §3

CSF1R = CSF1R (Homo sapiens (Human), UniProt P07333)
Procedure: as §1, §2, §3

NIK = NIK (Homo sapiens (Human), UniProt Q99558)
Procedure: as §1, §2, §3

ASK1 = ASK1 (Homo sapiens (Human), UniProt Q99683)
Procedure: as §1, §2, §3

ADCK3 = ADCK3 (Homo sapiens (Human), UniProt Q8NI60)
Procedure: as §1, §2, §3

ERK2 = ERK2 (Homo sapiens (Human), UniProt P28482)
Procedure: as §1, §2, §3

PKMYT1 = PKMYT1 (Homo sapiens (Human), UniProt Q99640)
Procedure: as §1, §2, §3

MLCK = MLCK (Homo sapiens (Human), UniProt Q32MK0)
Procedure: as §1, §2, §3

[1] = biological target: JAK1(JH2domain-pseudokinase) (Homo sapiens (Human), UniProt P23458)
JAK1(JH2domain-pseudokinase), sequence (P23458 583-855): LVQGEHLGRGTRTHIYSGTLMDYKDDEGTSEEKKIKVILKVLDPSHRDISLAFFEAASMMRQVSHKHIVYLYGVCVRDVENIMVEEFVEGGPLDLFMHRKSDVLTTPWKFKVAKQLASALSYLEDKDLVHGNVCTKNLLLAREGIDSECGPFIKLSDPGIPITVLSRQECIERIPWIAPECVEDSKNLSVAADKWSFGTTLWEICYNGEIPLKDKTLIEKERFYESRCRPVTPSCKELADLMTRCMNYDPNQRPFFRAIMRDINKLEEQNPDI
Procedure: as §1, §2, §3

NEK3 = NEK3 (Homo sapiens (Human), UniProt P51956)
Procedure: as §1, §2, §3

SRMS = SRMS (Homo sapiens (Human), UniProt Q9H3Y6)
Procedure: as §1, §2, §3

ZAP70 = ZAP70 (Homo sapiens (Human), UniProt P43403)
ZAP70, sequence (P43403 whole entry): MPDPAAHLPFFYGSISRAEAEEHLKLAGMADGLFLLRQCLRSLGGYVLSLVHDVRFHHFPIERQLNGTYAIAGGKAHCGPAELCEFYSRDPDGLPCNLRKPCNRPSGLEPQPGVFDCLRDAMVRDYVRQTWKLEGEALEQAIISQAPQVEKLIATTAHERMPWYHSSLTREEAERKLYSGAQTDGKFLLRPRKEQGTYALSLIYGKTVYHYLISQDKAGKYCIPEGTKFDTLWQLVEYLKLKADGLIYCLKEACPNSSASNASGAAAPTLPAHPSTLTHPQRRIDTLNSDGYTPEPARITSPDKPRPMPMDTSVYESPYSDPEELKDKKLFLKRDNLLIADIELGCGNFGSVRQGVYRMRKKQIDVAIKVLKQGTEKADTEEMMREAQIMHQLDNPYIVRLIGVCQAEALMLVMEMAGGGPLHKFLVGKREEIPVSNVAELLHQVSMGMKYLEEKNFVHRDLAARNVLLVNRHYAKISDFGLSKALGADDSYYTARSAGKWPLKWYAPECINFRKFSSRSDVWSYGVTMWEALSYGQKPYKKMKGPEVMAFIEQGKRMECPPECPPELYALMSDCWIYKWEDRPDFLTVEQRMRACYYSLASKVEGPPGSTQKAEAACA
Procedure: as §1, §2, §3

STK35 = STK35 (Homo sapiens (Human), UniProt Q8TDR2)
Procedure: as §1, §2, §3

PRKD3 = PRKD3 (Homo sapiens (Human), UniProt O94806)
PRKD3, sequence (O94806 whole entry): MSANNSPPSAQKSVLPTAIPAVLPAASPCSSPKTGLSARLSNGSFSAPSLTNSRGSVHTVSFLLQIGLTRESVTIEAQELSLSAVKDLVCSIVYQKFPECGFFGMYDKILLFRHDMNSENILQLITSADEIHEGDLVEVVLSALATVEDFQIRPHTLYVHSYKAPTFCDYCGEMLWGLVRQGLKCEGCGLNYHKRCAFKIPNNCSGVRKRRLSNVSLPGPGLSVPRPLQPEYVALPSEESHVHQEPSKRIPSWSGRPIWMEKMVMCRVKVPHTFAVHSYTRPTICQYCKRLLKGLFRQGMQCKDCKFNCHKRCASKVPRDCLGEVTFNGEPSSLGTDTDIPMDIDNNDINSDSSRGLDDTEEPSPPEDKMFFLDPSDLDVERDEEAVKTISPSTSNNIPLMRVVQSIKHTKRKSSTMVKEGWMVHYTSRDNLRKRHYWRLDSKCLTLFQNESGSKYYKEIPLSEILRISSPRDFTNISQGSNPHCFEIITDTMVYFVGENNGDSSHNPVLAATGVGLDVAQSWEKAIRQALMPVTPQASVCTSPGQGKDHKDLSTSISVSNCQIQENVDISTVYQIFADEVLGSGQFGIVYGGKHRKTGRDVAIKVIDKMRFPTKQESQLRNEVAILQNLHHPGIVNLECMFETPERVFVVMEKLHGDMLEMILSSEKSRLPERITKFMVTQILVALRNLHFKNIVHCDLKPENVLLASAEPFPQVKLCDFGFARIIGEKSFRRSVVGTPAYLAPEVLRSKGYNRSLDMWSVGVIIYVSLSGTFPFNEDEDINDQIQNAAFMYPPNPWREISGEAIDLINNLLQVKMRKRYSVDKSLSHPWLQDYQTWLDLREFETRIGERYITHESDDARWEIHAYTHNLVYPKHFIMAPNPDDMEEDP
Procedure: as §1, §2, §3

ERK4 = ERK4 (Homo sapiens (Human), UniProt P31152)
Procedure: as §1, §2, §3

INSR = INSR (Homo sapiens (Human), UniProt P06213)
Procedure: as §1, §2, §3

CDK4-cyclinD3 = CDK4-cyclinD3 (Homo sapiens (Human), UniProt P11802)
Procedure: as §1, §2, §3

CSNK1G3 = CSNK1G3 (Homo sapiens (Human), UniProt Q9Y6M4)
Procedure: as §1, §2, §3

CDK7 = CDK7 (Homo sapiens (Human), UniProt P50613)
Procedure: as §1, §2, §3

JNK3 = JNK3 (Homo sapiens (Human), UniProt P53779)
JNK3, sequence (P53779 whole entry): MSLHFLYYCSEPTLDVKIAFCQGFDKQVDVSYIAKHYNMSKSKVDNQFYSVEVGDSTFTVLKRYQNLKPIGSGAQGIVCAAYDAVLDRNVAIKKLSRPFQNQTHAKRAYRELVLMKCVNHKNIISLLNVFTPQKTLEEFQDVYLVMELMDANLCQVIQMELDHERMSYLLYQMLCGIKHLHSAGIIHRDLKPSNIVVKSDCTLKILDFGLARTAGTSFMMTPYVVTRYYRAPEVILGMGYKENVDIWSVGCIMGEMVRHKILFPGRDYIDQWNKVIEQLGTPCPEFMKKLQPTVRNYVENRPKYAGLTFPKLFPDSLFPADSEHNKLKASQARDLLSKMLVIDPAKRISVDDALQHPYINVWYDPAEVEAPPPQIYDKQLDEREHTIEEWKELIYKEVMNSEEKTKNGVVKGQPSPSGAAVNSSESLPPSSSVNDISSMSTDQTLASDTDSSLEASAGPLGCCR
Procedure: as §1, §2, §3

MARK2 = MARK2 (Homo sapiens (Human), UniProt Q7KZI7)
Procedure: as §1, §2, §3

NEK6 = NEK6 (Homo sapiens (Human), UniProt Q9HC98)
NEK6, sequence (Q9HC98 whole entry): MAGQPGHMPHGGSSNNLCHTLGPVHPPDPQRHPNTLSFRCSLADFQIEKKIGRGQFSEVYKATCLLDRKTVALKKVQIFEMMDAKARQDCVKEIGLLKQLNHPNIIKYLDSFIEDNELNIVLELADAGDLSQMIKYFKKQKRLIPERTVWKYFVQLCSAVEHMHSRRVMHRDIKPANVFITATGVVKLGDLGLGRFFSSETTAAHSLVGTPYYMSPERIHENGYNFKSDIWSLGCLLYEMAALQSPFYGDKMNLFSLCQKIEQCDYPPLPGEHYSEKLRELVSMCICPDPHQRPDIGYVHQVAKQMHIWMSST
Procedure: as §1, §2, §3

EIF2AK1 = EIF2AK1 (Homo sapiens (Human), UniProt Q9BQI3)
Procedure: as §1, §2, §3

MTOR = MTOR (Homo sapiens (Human), UniProt P42345)
Procedure: as §1, §2, §3

PAK3 = PAK3 (Homo sapiens (Human), UniProt O75914)
PAK3, sequence (O75914 whole entry): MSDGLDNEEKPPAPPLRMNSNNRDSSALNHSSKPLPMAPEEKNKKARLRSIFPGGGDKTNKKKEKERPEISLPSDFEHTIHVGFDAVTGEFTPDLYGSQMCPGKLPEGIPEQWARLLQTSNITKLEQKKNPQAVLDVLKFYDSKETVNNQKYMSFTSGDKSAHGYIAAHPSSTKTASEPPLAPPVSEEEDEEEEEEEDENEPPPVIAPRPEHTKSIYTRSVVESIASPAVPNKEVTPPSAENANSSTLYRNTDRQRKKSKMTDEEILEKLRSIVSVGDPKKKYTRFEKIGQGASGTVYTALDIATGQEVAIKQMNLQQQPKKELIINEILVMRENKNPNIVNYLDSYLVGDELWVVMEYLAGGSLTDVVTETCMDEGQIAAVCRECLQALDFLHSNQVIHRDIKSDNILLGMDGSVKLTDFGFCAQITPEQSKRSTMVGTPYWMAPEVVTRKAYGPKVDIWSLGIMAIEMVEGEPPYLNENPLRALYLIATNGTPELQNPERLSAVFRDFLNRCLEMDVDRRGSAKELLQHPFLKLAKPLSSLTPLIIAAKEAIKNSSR
Procedure: as §1, §2, §3

PIK3CA(C420R) = PIK3CA(C420R) (Homo sapiens (Human), UniProt P42336, C420R)
Procedure: as §1, §2, §3

HUNK = HUNK (Homo sapiens (Human), UniProt P57058)
Procedure: as §1, §2, §3

ERK3 = ERK3 (Homo sapiens (Human), UniProt Q16659)
ERK3, sequence (Q16659 whole entry): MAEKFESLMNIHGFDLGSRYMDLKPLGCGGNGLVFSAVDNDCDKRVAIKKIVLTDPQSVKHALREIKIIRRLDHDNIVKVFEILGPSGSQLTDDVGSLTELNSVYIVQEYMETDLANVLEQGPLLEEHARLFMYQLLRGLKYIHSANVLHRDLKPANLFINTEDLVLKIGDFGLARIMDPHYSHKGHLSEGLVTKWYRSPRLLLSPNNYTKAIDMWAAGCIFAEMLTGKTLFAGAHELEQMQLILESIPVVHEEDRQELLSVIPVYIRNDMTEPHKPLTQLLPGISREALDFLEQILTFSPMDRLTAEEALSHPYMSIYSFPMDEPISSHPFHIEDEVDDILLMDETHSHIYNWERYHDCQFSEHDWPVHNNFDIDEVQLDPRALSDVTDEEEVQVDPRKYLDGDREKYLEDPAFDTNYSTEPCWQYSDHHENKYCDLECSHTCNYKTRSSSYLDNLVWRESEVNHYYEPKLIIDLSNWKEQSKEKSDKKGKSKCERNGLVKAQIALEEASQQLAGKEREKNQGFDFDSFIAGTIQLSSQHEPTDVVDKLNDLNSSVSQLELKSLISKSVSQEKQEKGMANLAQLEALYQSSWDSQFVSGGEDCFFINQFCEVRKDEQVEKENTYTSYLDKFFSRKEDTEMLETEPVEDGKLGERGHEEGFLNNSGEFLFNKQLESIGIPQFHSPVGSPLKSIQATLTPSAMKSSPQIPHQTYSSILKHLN
Procedure: as §1, §2, §3

FYN = FYN (Homo sapiens (Human), UniProt P06241)
Procedure: as §1, §2, §3

PYK2 = PYK2 (Homo sapiens (Human), UniProt Q14289)
Procedure: as §1, §2, §3

MYLK = MYLK (Homo sapiens (Human), UniProt Q15746)
Procedure: as §1, §2, §3

SGK2 = SGK2 (Homo sapiens (Human), UniProt Q9HBY8)
Procedure: as §1, §2, §3

TIE1 = TIE1 (Homo sapiens (Human), UniProt P35590)
Procedure: as §1, §2, §3

SYK = SYK (Homo sapiens (Human), UniProt P43405)
Procedure: as §1, §2, §3

BTK = BTK (Homo sapiens (Human), UniProt Q06187)
Procedure: as §1, §2, §3

ERBB3 = ERBB3 (Homo sapiens (Human), UniProt P21860)
Procedure: as §1, §2, §3

MEK4 = MEK4 (Homo sapiens (Human), UniProt P45985)
MEK4, sequence (P45985 whole entry): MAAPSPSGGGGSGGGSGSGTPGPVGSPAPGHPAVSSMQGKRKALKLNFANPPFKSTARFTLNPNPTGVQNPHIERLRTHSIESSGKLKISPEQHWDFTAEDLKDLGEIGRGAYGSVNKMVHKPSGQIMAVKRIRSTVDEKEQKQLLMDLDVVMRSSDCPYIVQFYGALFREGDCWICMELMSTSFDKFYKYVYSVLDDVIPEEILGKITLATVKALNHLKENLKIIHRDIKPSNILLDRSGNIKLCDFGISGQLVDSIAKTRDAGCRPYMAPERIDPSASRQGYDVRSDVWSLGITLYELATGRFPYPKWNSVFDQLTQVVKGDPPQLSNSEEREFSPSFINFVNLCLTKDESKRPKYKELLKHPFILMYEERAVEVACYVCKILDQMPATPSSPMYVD
Procedure: as §1, §2, §3

Row | Structure (SMILES) | remaining binding at 1 µM (CDK11) [%] | remaining binding at 1 µM (AMPK-alpha1) [%] | remaining binding at 1 µM (CSNK1A1L) [%] | remaining binding at 1 µM (DLK) [%] | remaining binding at 1 µM (CSF1R) [%] | remaining binding at 1 µM (NIK) [%] | remaining binding at 1 µM (ASK1) [%] | remaining binding at 1 µM (ADCK3) [%] | remaining binding at 1 µM (ERK2) [%] | remaining binding at 1 µM (PKMYT1) [%] | remaining binding at 1 µM (MLCK) [%] | remaining binding at 1 µM [1] [%] | remaining binding at 1 µM (NEK3) [%] | remaining binding at 1 µM (SRMS) [%] | remaining binding at 1 µM (ZAP70) [%] | remaining binding at 1 µM (STK35) [%] | remaining binding at 1 µM (PRKD3) [%] | remaining binding at 1 µM (ERK4) [%] | remaining binding at 1 µM (INSR) [%] | remaining binding at 1 µM (CDK4-cyclinD3) [%] | also measured
1 | CCNc1cc(Nc2ccc(C(=O)N3CCC(N4CCOCC4)CC3)cc2OC)nc2[nH]cc(C(F)(F)F)c12 [Example 57, (4-((4-(ethylamino)-3-(trifluoromethyl)-1H-pyrrolo[2,3-b]pyridin-6-yl)amino)-3-methoxyphenyl) (4-morpholinopiperidin-1-yl)methanone] | 67 | 75 | 71 | 100 | 72 | 82 | 77 | 89 | 74 | 96 | 78 | 45 | 93 | 96 | 100 | 98 | 78 | 93 | 48 | 100 | remaining binding at 1 µM (CSNK1G3): 89%; remaining binding at 1 µM (CDK7): 53%; remaining binding at 1 µM (JNK3): 52%; remaining binding at 1 µM (MARK2): 93%; remaining binding at 1 µM (NEK6): 84%; remaining binding at 1 µM (EIF2AK1): 99%; remaining binding at 1 µM (MTOR): 88%; remaining binding at 1 µM (PAK3): 83%; remaining binding at 1 µM (PIK3CA(C420R)): 100%; remaining binding at 1 µM (HUNK): 51%; remaining binding at 1 µM (ERK3): 94%; remaining binding at 1 µM (FYN): 87%; remaining binding at 1 µM (PYK2): 76%; remaining binding at 1 µM (MYLK): 7.8%; remaining binding at 1 µM (SGK2): 100%; remaining binding at 1 µM (TIE1): 100%; remaining binding at 1 µM (SYK): 68%; remaining binding at 1 µM (BTK): 100%; remaining binding at 1 µM (ERBB3): 100%; remaining binding at 1 µM (MEK4): 98%
2 | CCNc1cc(Nc2ccc(C(=O)N3CCC(N4CCOCC4)CC3)cc2OC)nc2[nH]cc(C#N)c12 [Example 18, 4-(ethylamino)-6-((2-methoxy-4-(4-morpholinopiperidine-1-carbonyl)phenyl)amino)-1H-pyrrolo[2,3-b]pyridine-3-carbonitrile] | 98 | 92 | 3.1 | 79 | 73 | 25 | 79 | 86 | 94 | 90 | 87 | 82 | 87 | 80 | 38 | 85 | 9.6 | 98 | 36 | 100 | remaining binding at 1 µM (CSNK1G3): 7.1%; remaining binding at 1 µM (CDK7): 55%; remaining binding at 1 µM (JNK3): 0%; remaining binding at 1 µM (MARK2): 89%; remaining binding at 1 µM (NEK6): 97%; remaining binding at 1 µM (EIF2AK1): 92%; remaining binding at 1 µM (MTOR): 86%; remaining binding at 1 µM (PAK3): 93%; remaining binding at 1 µM (PIK3CA(C420R)): 87%; remaining binding at 1 µM (HUNK): 57%; remaining binding at 1 µM (ERK3): 85%; remaining binding at 1 µM (FYN): 78%; remaining binding at 1 µM (PYK2): 60%; remaining binding at 1 µM (MYLK): 6%; remaining binding at 1 µM (SGK2): 64%; remaining binding at 1 µM (TIE1): 88%; remaining binding at 1 µM (SYK): 66%; remaining binding at 1 µM (BTK): 99%; remaining binding at 1 µM (ERBB3): 97%; remaining binding at 1 µM (MEK4): 0%
